Measured values taken from PubChem BioAssay (NCI).
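Values below derive from 48-hour exposures of cells grown in 96-well plates, with endpoints linearly interpolated between the two concentrations bracketing the appropriate inhibition level. GI50 marks 50% less growth. Definition used: TGI = concentration required for complete inhibition of growth.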

Key:
Test in all cases: growth of human tumour cells (NCI), 48 h
786-0 renal = system: 786-0 renal
A498 renal = system: A498 renal
A549 NSCLC = system: A549 NSCLC
ACHN renal = system: ACHN renal
BT-549 breast = system: BT-549 breast
CAKI-1 renal = system: CAKI-1 renal
CCRF-CEM leukemia = system: CCRF-CEM leukemia
COLO 205 colon = system: COLO 205 colon
DU-145 prostate = system: DU-145 prostate
EKVX NSCLC = system: EKVX NSCLC
HCC-2998 colon = system: HCC-2998 colon
HCT-116 colon = system: HCT-116 colon
HCT-15 colon = system: HCT-15 colon
HL-60(TB) leukemia = system: HL-60(TB) leukemia
HOP-62 NSCLC = system: HOP-62 NSCLC
HOP-92 NSCLC = system: HOP-92 NSCLC
HS 578T breast = system: HS 578T breast
HT29 colon = system: HT29 colon
IGROV1 ovarian = system: IGROV1 ovarian
K-562 leukemia = system: K-562 leukemia
KM12 colon = system: KM12 colon
LOX IMVI melanoma = system: LOX IMVI melanoma
M14 melanoma = system: M14 melanoma
MALME-3M melanoma = system: MALME-3M melanoma
MCF7 breast = system: MCF7 breast
MDA-MB-231 breast = system: MDA-MB-231 breast
MDA-MB-435 = system: MDA-MB-435
MOLT-4 leukemia = system: MOLT-4 leukemia
NCI-H226 lung = system: NCI-H226 lung
NCI-H23 lung = system: NCI-H23 lung
NCI-H460 lung = system: NCI-H460 lung
NCI-H522 lung = system: NCI-H522 lung
NCI/ADR-RES ovarian = system: NCI/ADR-RES ovarian
OVCAR-3 ovarian = system: OVCAR-3 ovarian
OVCAR-4 ovarian = system: OVCAR-4 ovarian
OVCAR-5 ovarian = system: OVCAR-5 ovarian
OVCAR-8 ovarian = system: OVCAR-8 ovarian
PC-3 prostate = system: PC-3 prostate
RPMI-8226 leukemia = system: RPMI-8226 leukemia
RXF 393 renal = system: RXF 393 renal
SF-268 CNS = system: SF-268 CNS
SF-295 CNS = system: SF-295 CNS
SF-539 CNS = system: SF-539 CNS
SK-MEL-2 melanoma = system: SK-MEL-2 melanoma
SK-MEL-28 melanoma = system: SK-MEL-28 melanoma
SK-MEL-5 melanoma = system: SK-MEL-5 melanoma
SK-OV-3 ovarian = system: SK-OV-3 ovarian
SN12C renal = system: SN12C renal
SNB-19 CNS = system: SNB-19 CNS
SNB-75 CNS = system: SNB-75 CNS
SR leukemia = system: SR leukemia
SW-620 colon = system: SW-620 colon
T-47D breast = system: T-47D breast
TK-10 renal = system: TK-10 renal
U251 CNS = system: U251 CNS
UACC-257 melanoma = system: UACC-257 melanoma
UACC-62 melanoma = system: UACC-62 melanoma
UO-31 renal = system: UO-31 renal

## CC(C)=CCC[C@](C)(O)[C@H]1CC[C@]2(C)[C@@H]1CC[C@@H]1[C@@]3(C)CC[C@H](OC(=O)CCC(=O)O)C(C)(C)[C@@H]3CC[C@]12C
786-0 renal
  GI50: > 100 µM
  TGI: > 100 µM
A498 renal
  GI50: 80.4 µM
  TGI: > 100 µM
A549 NSCLC
  GI50: 32.3 µM
  TGI: > 100 µM
ACHN renal
  GI50: 28.3 µM
  TGI: > 100 µM
BT-549 breast
  GI50: > 100 µM
  TGI: > 100 µM
CAKI-1 renal
  GI50: 24.7 µM
  TGI: > 100 µM
CCRF-CEM leukemia
  GI50: 12.1 µM
  TGI: 58 µM
COLO 205 colon
  GI50: 27.4 µM
  TGI: 95.3 µM
DU-145 prostate
  GI50: 27.5 µM
  TGI: > 100 µM
EKVX NSCLC
  GI50: 37.9 µM
  TGI: > 100 µM
HCC-2998 colon
  GI50: 30.6 µM
  TGI: > 100 µM
HCT-116 colon
  GI50: 56.5 µM
  TGI: > 100 µM
HCT-15 colon
  GI50: 19.5 µM
  TGI: 48.6 µM
HL-60(TB) leukemia
  GI50: 22.2 µM
  TGI: 53.1 µM
HOP-62 NSCLC
  GI50: 37.6 µM
  TGI: > 100 µM
HOP-92 NSCLC
  GI50: 14.5 µM
  TGI: 35.9 µM
HS 578T breast
  GI50: 45.8 µM
  TGI: > 100 µM
HT29 colon
  GI50: 29.2 µM
  TGI: > 100 µM
IGROV1 ovarian
  GI50: 18.5 µM
  TGI: 72.7 µM
K-562 leukemia
  GI50: 23.8 µM
  TGI: > 100 µM
KM12 colon
  GI50: 18.5 µM
  TGI: 41.2 µM
LOX IMVI melanoma
  GI50: 16.6 µM
  TGI: 30.7 µM
M14 melanoma
  GI50: 73.6 µM
  TGI: > 100 µM
MALME-3M melanoma
  GI50: 16.8 µM
  TGI: 38.6 µM
MCF7 breast
  GI50: 29.3 µM
  TGI: > 100 µM
MDA-MB-231 breast
  GI50: 30.1 µM
  TGI: 87.5 µM
MDA-MB-435
  GI50: 29.3 µM
  TGI: > 100 µM
MOLT-4 leukemia
  GI50: 21 µM
  TGI: 94 µM
NCI-H226 lung
  GI50: 16.7 µM
  TGI: 40.3 µM
NCI-H23 lung
  GI50: 30.8 µM
  TGI: > 100 µM
NCI-H460 lung
  GI50: 36.4 µM
  TGI: > 100 µM
NCI-H522 lung
  GI50: 26.2 µM
  TGI: > 100 µM
NCI/ADR-RES ovarian
  GI50: 30.4 µM
  TGI: > 100 µM
OVCAR-3 ovarian
  GI50: 15.9 µM
  TGI: 30.9 µM
OVCAR-4 ovarian
  GI50: 27.6 µM
  TGI: > 100 µM
OVCAR-5 ovarian
  GI50: 28.8 µM
  TGI: 96.3 µM
OVCAR-8 ovarian
  GI50: 35.5 µM
  TGI: > 100 µM
PC-3 prostate
  GI50: 8.79 µM
  TGI: 28.4 µM
RPMI-8226 leukemia
  GI50: 7.65 µM
  TGI: 52.9 µM
RXF 393 renal
  GI50: 17.4 µM
  TGI: 85 µM
SF-268 CNS
  GI50: 29.9 µM
  TGI: > 100 µM
SF-295 CNS
  GI50: 28.6 µM
  TGI: 92.5 µM
SF-539 CNS
  GI50: 19.7 µM
  TGI: 57.8 µM
SK-MEL-2 melanoma
  GI50: 25.3 µM
  TGI: 85.6 µM
SK-MEL-28 melanoma
  GI50: 16.9 µM
  TGI: 34.8 µM
SK-MEL-5 melanoma
  GI50: 17.8 µM
  TGI: 43.2 µM
SK-OV-3 ovarian
  GI50: 47.6 µM
  TGI: > 100 µM
SN12C renal
  GI50: 25.5 µM
  TGI: 78.1 µM
SNB-19 CNS
  GI50: 25.1 µM
  TGI: > 100 µM
SNB-75 CNS
  GI50: > 100 µM
  TGI: > 100 µM
SR leukemia
  GI50: 19.4 µM
  TGI: 56.5 µM
SW-620 colon
  GI50: 35.4 µM
  TGI: > 100 µM
T-47D breast
  GI50: 19.4 µM
  TGI: > 100 µM
TK-10 renal
  GI50: 87.8 µM
  TGI: > 100 µM
U251 CNS
  GI50: 28.1 µM
  TGI: > 100 µM
UACC-257 melanoma
  GI50: 36.9 µM
  TGI: > 100 µM
UACC-62 melanoma
  GI50: 15 µM
  TGI: 32.5 µM
UO-31 renal
  GI50: 13.7 µM
  TGI: 28 µM
